Data: ChEMBL document CHEMBL1150654, “New marine diterpenoids from the Okinawan soft coral Clavularia koellikeri” (J Nat Prod, 2002)
Converted amounts (≈) assume the structure as drawn.

Columns and labels:
Format in all cases: functional, cell-based
DMS-114 = test: Cytotoxicity against human DMS114 cells after 48 hrs by sulforhodamine B assay; details: DMS-114, 48 h
NCI-H23 = test: Cytotoxicity against human NCI-H23 cells after 48 hrs by sulforhodamine B assay; details: NCI-H23, 48 h
MKN-45 = test: Cytotoxicity against human MKN45 cells after 48 hrs by sulforhodamine B assay; details: MKN-45, 48 h
OVCAR-5 = test: Cytotoxicity against human OVCAR5 cells after 48 hrs by sulforhodamine B assay; details: OVCAR-5, 48 h
NCI-H460 = test: Cytotoxicity against human NCI-H460 cells after 48 hrs by sulforhodamine B assay; details: NCI-H460, 48 h
DU-145 = test: Cytotoxicity against human DU145 cells after 48 hrs by sulforhodamine B assay; details: DU-145, 48 h
LOX IMVI = test: Cytotoxicity against human LOXIMVI cells after 48 hrs by sulforhodamine B assay
HCC 2998 = test: Cytotoxicity against human HCC2998 cells after 48 hrs by sulforhodamine B assay; details: HCC 2998, 48 h
SF-268 = test: Cytotoxicity against human SF268 cells after 48 hrs by sulforhodamine B assay; details: SF-268, 48 h
MKN-74 = test: Cytotoxicity against human MKN74 cells after 48 hrs by sulforhodamine B assay; details: MKN-74, 48 h
HT-29 = test: Cytotoxicity against human HT-29 cells after 48 hrs by sulforhodamine B assay; details: HT-29, 48 h
OVCAR-4 = test: Cytotoxicity against human OVCAR4 cells after 48 hrs by sulforhodamine B assay; details: OVCAR-4, 48 h
MKN-28 = test: Cytotoxicity against human MKN28 cells after 48 hrs by sulforhodamine B assay; details: MKN-28, 48 h
SF-539 = test: Cytotoxicity against human SF539 cells after 48 hrs by sulforhodamine B assay; details: SF-539, 48 h
SNB-75 = test: Cytotoxicity against human SNB75 cells after 48 hrs by sulforhodamine B assay; details: SNB-75, 48 h
A549 = test: Cytotoxicity against human A549 cells after 48 hrs by sulforhodamine B assay; details: A549, 48 h
[1] = Cytotoxicity against human MKN1 cells after 48 hrs by sulforhodamine B assay; details: MKN-1, 48 h
SNB-78 = test: Cytotoxicity against human SNB78 cells after 48 hrs by sulforhodamine B assay; details: SNB-78, 48 h
[2] = Cytotoxicity against human RXF631L cells after 48 hrs by sulforhodamine B assay; details: RXF 631, 48 h
ACHN = test: Cytotoxicity against human ACHN cells after 48 hrs by sulforhodamine B assay
KM12 = test: Cytotoxicity against human KM12 cells after 48 hrs by sulforhodamine B assay; details: KM12, 48 h
SK-OV-3 = test: Cytotoxicity against human SKOV3 cells after 48 hrs by sulforhodamine B assay; details: SK-OV-3, 48 h
MKN-7 = test: Cytotoxicity against human MKN7 cells after 48 hrs by sulforhodamine B assay; details: MKN-7, 48 h
HCT-116 = test: Cytotoxicity against human HCT116 cells after 48 hrs by sulforhodamine B assay; details: HCT-116, 48 h
DMS-273 = test: Cytotoxicity against human DMS273 cells after 48 hrs by sulforhodamine B assay; details: DMS-273, 48 h
[3] = Cytotoxicity against human HBC4 cells after 48 hrs by sulforhodamine B assay; details: HBC4, 48 h
OVCAR-8 = test: Cytotoxicity against human OVCAR8 cells after 48 hrs by sulforhodamine B assay; details: OVCAR-8, 48 h
[4] = Cytotoxicity against human HBC5 cells after 48 hrs by sulforhodamine B assay; details: HBC5, 48 h
HCT-15 = test: Cytotoxicity against human HCT15 cells after 48 hrs by sulforhodamine B assay; details: HCT-15, 48 h
NCI-H522 = test: Cytotoxicity against human NCI-H522 cells after 48 hrs by sulforhodamine B assay; details: NCI-H522, 48 h
MDA-MB-231 = test: Cytotoxicity against human MDA-MB-231 cells after 48 hrs by sulforhodamine B assay; details: MDA-MB-231, 48 h
MCF7 = test: Cytotoxicity against human MCF7 cells after 48 hrs by sulforhodamine B assay; details: MCF7, 48 h
OVCAR-3 = test: Cytotoxicity against human OVCAR-3 cells after 48 hrs by sulforhodamine B assay; details: OVCAR-3, 48 h
U-251 = test: Cytotoxicity against human U251 cells after 48 hrs by sulforhodamine B assay; details: U-251, 48 h
NCI-H226 = test: Cytotoxicity against human NCI-H226 cells after 48 hrs by sulforhodamine B assay; details: NCI-H226, 48 h
PC-3 = test: Cytotoxicity against human PC3 cells after 48 hrs by sulforhodamine B assay; details: PC-3, 48 h
SF-295 = test: Cytotoxicity against human SF295 cells after 48 hrs by sulforhodamine B assay; details: SF-295, 48 h
St-4 = test: Cytotoxicity against human St-4 cells after 48 hrs by sulforhodamine B assay; details: St-4, 48 h
[5] = Cytotoxicity against human BSY1 cells after 48 hrs by sulforhodamine B assay; details: BSY-1, 48 h

Work on `C=C1C(=O)O[C@H]2/C=C(\C)CC/C=C(\C)CC/C=C(\C)CC[C@H]12` yielded an IC50 (DMS-114) of 3.6 µg/mL (≈ 12 µM), an IC50 (NCI-H23) of 3.6 µg/mL (≈ 12 µM) and an IC50 (MKN-45) of 3 µg/mL (≈ 9.99 µM). It also gave an IC50 (OVCAR-5) of 2.31 µg/mL (≈ 7.69 µM), an IC50 (NCI-H460) of 3.3 µg/mL (≈ 11 µM) and an IC50 (DU-145) of 3.3 µg/mL (≈ 11 µM). It also gave an IC50 (LOX IMVI) of 0.72 µg/mL (≈ 2.4 µM), an IC50 (HCC 2998) of 1.29 µg/mL (≈ 4.29 µM) and an IC50 (SF-268) of 3 µg/mL (≈ 9.99 µM). It also gave an IC50 (MKN-74) of 0.81 µg/mL (≈ 2.7 µM), an IC50 (HT-29) of 1.47 µg/mL (≈ 4.89 µM) and an IC50 (OVCAR-4) of 2.25 µg/mL (≈ 7.49 µM). The IC50 (MKN-28) was 0.96 µg/mL (≈ 3.2 µM), the IC50 (SF-539) was 1.56 µg/mL (≈ 5.19 µM) and the IC50 (SNB-75) was 3.3 µg/mL (≈ 11 µM). The IC50 (A549) was 1.26 µg/mL (≈ 4.19 µM), the IC50 [1] was 1.2 µg/mL (≈ 3.99 µM) and the IC50 (SNB-78) was 1.59 µg/mL (≈ 5.29 µM). For the same compound, the IC50 [2] was 4.8 µg/mL (≈ 16 µM), the IC50 (ACHN) was 3 µg/mL (≈ 9.99 µM) and the IC50 (KM12) was 1.32 µg/mL (≈ 4.39 µM). It also gave an IC50 (SK-OV-3) of 6.6 µg/mL (≈ 22 µM), an IC50 (MKN-7) of 0.96 µg/mL (≈ 3.2 µM) and an IC50 (HCT-116) of 1.17 µg/mL (≈ 3.89 µM). It also gave an IC50 (DMS-273) of 1.11 µg/mL (≈ 3.69 µM), an IC50 [3] of 1.62 µg/mL (≈ 5.39 µM) and an IC50 (OVCAR-8) of 0.93 µg/mL (≈ 3.1 µM). For the same compound, the IC50 [4] was 2.13 µg/mL (≈ 7.09 µM), the IC50 (HCT-15) was 2.01 µg/mL (≈ 6.69 µM) and the IC50 (NCI-H522) was 0.66 µg/mL (≈ 2.2 µM). It also gave an IC50 (MDA-MB-231) of 4.5 µg/mL (≈ 15 µM), an IC50 (MCF7) of 0.9 µg/mL (≈ 3 µM) and an IC50 (OVCAR-3) of 1.14 µg/mL (≈ 3.79 µM). For the same compound, the IC50 (U-251) was 4.2 µg/mL (≈ 14 µM), the IC50 (NCI-H226) was 1.14 µg/mL (≈ 3.79 µM) and the IC50 (PC-3) was 1.11 µg/mL (≈ 3.69 µM). For the same compound, the IC50 (SF-295) was 3.9 µg/mL (≈ 13 µM), the IC50 (St-4) was 3.9 µg/mL (≈ 13 µM) and the IC50 [5] was 1.35 µg/mL (≈ 4.49 µM).
